Results published in the supplement of paper PMC6965134.
± gives the standard deviation of the averaged measurements.

Assay: TIMS collisional cross section (CCS, N2) of the lipid ion; higher = larger ion cross section
Conditions: ionization mode: positive, one isomer drawn

| Structure (SMILES) | TIMS collisional cross section (sample type: HeLa) [Å²] | TIMS collisional cross section (sample type: plasma) [Å²] | TIMS collisional cross section (sample type: Liver) [Å²] |
| --- | --- | --- | --- |
| CCCCCC/C=C\CCCCCCCC(=O)OC[C@@H](COC(=O)CCCCCCCCCCCCC)OC(=O)CCCCCCC/C=C\CCCCCC [TG 14:0_16:1_16:1] (ion (formula + adduct): [C49H90O6+NH4] 1+) | 302.9 ± 0.28 | 303.5 |  |
| CCCCCC/C=C\CCCCCCCC(=O)O[C@H](COC(=O)CCCCCCCCCCCCC)COC(=O)CCCCCCCCCCCCCCCC [TG 14:0_16:1_17:0] (ion (formula + adduct): [C50H94O6+NH4] 1+) | 309.6 | 309 |  |
| CCCCCC/C=C\CCCCCCCC(=O)O[C@@H](COC(=O)CCCCCCC/C=C\CCCCCCC)COC(=O)CCCCCCCCCCCCC [TG 14:0_16:1_17:1] (ion (formula + adduct): [C50H92O6+NH4] 1+) | 307.1 | 307.3 |  |
| CCCCCC/C=C\CCCCCCCC(=O)O[C@@H](COC(=O)CCCCCCC/C=C\CCCCCCCC)COC(=O)CCCCCCCCCCCCC [TG 14:0_16:1_18:1] (ion (formula + adduct): [C51H94O6+NH4] 1+) | 309.3 | 309.45 ± 0.071 | 310.3 |
| CCCCC/C=C\C/C=C\CCCCCCCC(=O)OC[C@@H](COC(=O)CCCCCCCCCCCCC)OC(=O)CCCCCCC/C=C\CCCCCC [TG 14:0_16:1_18:2] (ion (formula + adduct): [C51H92O6+NH4] 1+) |  | 307.8 ± 0.92 | 306.1 |
| CCCCC/C=C\C/C=C\C/C=C\C/C=C\CCCC(=O)OC[C@@H](COC(=O)CCCCCCCCCCCCC)OC(=O)CCCCCCC/C=C\CCCCCC [TG 14:0_16:1_20:4] (ion (formula + adduct): [C53H92O6+NH4] 1+) | 311 |  |  |
| CC/C=C\C/C=C\C/C=C\C/C=C\C/C=C\CCCC(=O)OC[C@@H](COC(=O)CCCCCCCCCCCCC)OC(=O)CCCCCCC/C=C\CCCCCC [TG 14:0_16:1_20:5] (ion (formula + adduct): [C53H90O6+NH4] 1+) | 310.6 |  |  |
| CC/C=C\C/C=C\C/C=C\C/C=C\C/C=C\C/C=C\CCC(=O)OC[C@@H](COC(=O)CCCCCCCCCCCCC)OC(=O)CCCCCCC/C=C\CCCCCC [TG 14:0_16:1_22:6] (ion (formula + adduct): [C55H92O6+NH4] 1+) | 315 |  |  |
| CCCCCCCC/C=C\CCCCCCCC(=O)OC[C@@H](COC(=O)CCCCCCCCCCCCC)OC(=O)CCCCCCCCCCCCCCCC [TG 14:0_17:0_18:1] (ion (formula + adduct): [C52H98O6+NH4] 1+) |  |  | 315.3 |
| CCCCCCC/C=C\CCCCCCCC(=O)O[C@@H](COC(=O)CCCCCCC/C=C\CCCCCCCC)COC(=O)CCCCCCCCCCCCC [TG 14:0_17:1_18:1] (ion (formula + adduct): [C52H96O6+NH4] 1+) | 312.9 |  | 313.6 |
| CCCCCCCCCCCCCCCCCCCC(=O)OC[C@@H](COC(=O)CCCCCCCCCCCCC)OC(=O)CCCCCCCCCCCCCCCCC [TG 14:0_18:0_20:0] (ion (formula + adduct): [C55H106O6+NH4] 1+) | 326.4 | 326.1 |  |
| CCCCCCCC/C=C\CCCCCCCC(=O)OC[C@@H](COC(=O)CCCCCCCCCCCCC)OC(=O)CCCCCCC/C=C\CCCCCCCC [TG 14:0_18:1_18:1] (ion (formula + adduct): [C53H98O6+NH4] 1+) |  |  | 315.3 |
| CCCCC/C=C\C/C=C\CCCCCCCC(=O)OC[C@@H](COC(=O)CCCCCCCCCCCCC)OC(=O)CCCCCCC/C=C\CCCCCCCC [TG 14:0_18:1_18:2] (ion (formula + adduct): [C53H96O6+NH4] 1+) |  |  | 312.9 |
| CCCCCCCC/C=C\CCCCCCCCCC(=O)OC[C@@H](COC(=O)CCCCCCCCCCCCC)OC(=O)CCCCCCC/C=C\CCCCCCCC [TG 14:0_18:1_20:1] (ion (formula + adduct): [C55H102O6+NH4] 1+) | 322.3 |  | 322.4 |
| CCCCC/C=C\C/C=C\CCCCCCCCCC(=O)OC[C@@H](COC(=O)CCCCCCCCCCCCC)OC(=O)CCCCCCC/C=C\CCCCCCCC [TG 14:0_18:1_20:2] (ion (formula + adduct): [C55H100O6+NH4] 1+) | 320 |  | 320.5 |
| CCCCC/C=C\C/C=C\C/C=C\CCCCC(=O)OC[C@@H](COC(=O)CCCCCCCCCCCCC)OC(=O)CCCCCCC/C=C\C/C=C\CCCCC [TG 14:0_18:2_18:3] (ion (formula + adduct): [C53H92O6+NH4] 1+) |  | 309.2 | 308.7 |
| CC/C=C\C/C=C\C/C=C\C/C=C\C/C=C\CCCC(=O)OC[C@@H](COC(=O)CCCCCCCCCCCCC)OC(=O)CCCCCCC/C=C\C/C=C\CCCCC [TG 14:0_18:2_20:5] (ion (formula + adduct): [C55H92O6+NH4] 1+) |  |  | 312.4 |
| CCCC/C=C\CCCCCCCC(=O)OC[C@H](COC(=O)CCCCCCC/C=C\CCCCCC)OC(=O)CCCCCCC/C=C\CCCC [TG 14:1_14:1_16:1] (ion (formula + adduct): [C47H84O6+NH4] 1+) | 294.6 |  | 291.2 |
| CCCC/C=C\CCCCCCCC(=O)OC[C@H](COC(=O)CCCCCCC/C=C\C/C=C\CCCCC)OC(=O)CCCCCCC/C=C\CCCC [TG 14:1_14:1_18:2] (ion (formula + adduct): [C49H86O6+NH4] 1+) |  |  | 296.3 |

Next, values leading:

| TIMS collisional cross section (sample type: HeLa) [Å²] | TIMS collisional cross section (sample type: plasma) [Å²] | TIMS collisional cross section (sample type: Liver) [Å²] | Structure (SMILES) |
| --- | --- | --- | --- |
| 300.7 | 300.5 | 300.3 | CCCC/C=C\CCCCCCCC(=O)OC[C@H](COC(=O)CCCCCCC/C=C\CCCCCC)OC(=O)CCCCCCCCCCCCCC [TG 14:1_15:0_16:1] (ion (formula + adduct): [C48H88O6+NH4] 1+) |
| 298.2 |  | 296 | CCCC/C=C\CCCCCCCC(=O)OC[C@H](COC(=O)CCCCCCC/C=C\CCCCCC)OC(=O)CCCCCCC/C=C\CCCCC [TG 14:1_15:1_16:1] (ion (formula + adduct): [C48H86O6+NH4] 1+) |
| 303.9 ± 0.85 | 303.9 ± 0.28 | 302.9 | CCCC/C=C\CCCCCCCC(=O)OC[C@H](COC(=O)CCCCCCC/C=C\CCCCCC)OC(=O)CCCCCCCCCCCCCCC [TG 14:1_16:0_16:1] (ion (formula + adduct): [C49H90O6+NH4] 1+) |
| 301.5 |  | 301.9 | CCCC/C=C\CCCCCCCC(=O)OC[C@H](COC(=O)CCCCCCC/C=C\CCCCCC)OC(=O)CCCCCCC/C=C\CCCCCC [TG 14:1_16:1_16:1] (ion (formula + adduct): [C49H88O6+NH4] 1+) |
|  |  | 305.4 | CCCC/C=C\CCCCCCCC(=O)OC[C@H](COC(=O)CCCCCCC/C=C\CCCCCCC)OC(=O)CCCCCCC/C=C\CCCCCC [TG 14:1_16:1_17:1] (ion (formula + adduct): [C50H90O6+NH4] 1+) |
| 309.6 |  |  | CCCC/C=C\CCCCCCCC(=O)OC[C@H](COC(=O)CCCCCCCCCCCCCCCCC)OC(=O)CCCCCCC/C=C\CCCCCC [TG 14:1_16:1_18:0] (ion (formula + adduct): [C51H94O6+NH4] 1+) |
| 307.85 ± 1.2 | 307 | 307.7 | CCCC/C=C\CCCCCCCC(=O)OC[C@H](COC(=O)CCCCCCC/C=C\CCCCCCCC)OC(=O)CCCCCCC/C=C\CCCCCC [TG 14:1_16:1_18:1] (ion (formula + adduct): [C51H92O6+NH4] 1+) |
| 306.1 | 304.5 | 304.7 | CCCC/C=C\CCCCCCCC(=O)OC[C@H](COC(=O)CCCCCCC/C=C\C/C=C\CCCCC)OC(=O)CCCCCCC/C=C\CCCCCC [TG 14:1_16:1_18:2] (ion (formula + adduct): [C51H90O6+NH4] 1+) |
|  | 308.6 |  | CCCC/C=C\CCCCCCCC(=O)OC[C@H](COC(=O)CCCCCCC/C=C\C/C=C\CCCCC)OC(=O)CCCCCCC/C=C\CCCCCCC [TG 14:1_17:1_18:2] (ion (formula + adduct): [C52H92O6+NH4] 1+) |
| 308 |  |  | CCCCCCCCCCCCCCCC(=O)OC[C@@H](COC(=O)CCCCCCCCCCCCCC)OC(=O)CCCCCCCCCCCCCC [TG 15:0_15:0_16:0] (ion (formula + adduct): [C49H94O6+NH4] 1+) |
| 305.9 |  |  | CCCCCC/C=C\CCCCCCCC(=O)OC[C@@H](COC(=O)CCCCCCCCCCCCCC)OC(=O)CCCCCCCCCCCCCC [TG 15:0_15:0_16:1] (ion (formula + adduct): [C49H92O6+NH4] 1+) |
|  |  | 305.9 | CCCCC/C=C\CCCCCCCC(=O)O[C@H](COC(=O)CCCCCCCCCCCCCC)COC(=O)CCCCCCCCCCCCCCC [TG 15:0_15:1_16:0] (ion (formula + adduct): [C49H92O6+NH4] 1+) |
| 311.5 | 311.3 ± 0.14 |  | CCCCCCCCCCCCCCCC(=O)OC[C@@H](COC(=O)CCCCCCCCCCCCCC)OC(=O)CCCCCCCCCCCCCCC [TG 15:0_16:0_16:0] (ion (formula + adduct): [C50H96O6+NH4] 1+) |
|  | 309.2 | 309.02 ± 0.29 | CCCCCC/C=C\CCCCCCCC(=O)OC[C@@H](COC(=O)CCCCCCCCCCCCCC)OC(=O)CCCCCCCCCCCCCCC [TG 15:0_16:0_16:1] (ion (formula + adduct): [C50H94O6+NH4] 1+) |
| 314.3 | 314.6 ± 0.22 |  | CCCCCCCCCCCCCCCCC(=O)OC[C@@H](COC(=O)CCCCCCCCCCCCCC)OC(=O)CCCCCCCCCCCCCCC [TG 15:0_16:0_17:0] (ion (formula + adduct): [C51H98O6+NH4] 1+) |
